Reference: patent US5994365A, “Substituted diazaanthracene compounds having pharmaceutical utility” (Diazans Limited, priority 1998, dated 1999)
Values joined by “and” are separate entries in the source; they are usually repeats but may differ in a detail not shown here. Equal values may be shown once.

Experiments:
Staph aureus = experiment: Broth microdilution (NCCLS guidelines), MIC; assay type: cell-based, Staphylococcus aureus; parameters: MICs: unit not given beside the values; conditions: for 1st MIC / 2nd MIC: Table B
Protocol: (§1) The dimer product of Example 15 was obtained in powder form. A stock solution of 1280 mg/L of the dimer in dimethylsulfoxide (DMSO) was prepared and stored at room temperature in a foil-wrapped screw-capped tube (10 ml). Subsequent dilutions were prepared using cation-adjusted Mueller-Hinton broth (50 mg/L Mg). […] It was resuspended upon mixing each time an aliquot was taken from the solution.
(§2) Approximately 100 varied bacterial isolates were initially collected for screening, along with 9 ATCC organisms. Forty additional strains of Staphylococcus species were subsequently screened. All isolates were identified according to generally accepted lab protocol.
(§3) Broth microdilution was performed according to NCCLS guidelines. Microdilution panels were prepared using doubling dilutions of the dimer in ~250 μl plastic, 96-well trays. Inoculum suspension equal to a 0.5 McFarland standard were further diluted and added to the microdilution trays to achieve a final inoculum of 5×10^5 CFU/ml (5×10^4 CFU/well). Colony counts were performed to confirm the final inoculum, as well as its purity. Each strain was also tested in a growth control well containing only MHB for viability.
(§4) Microdilution trays were incubated at 35° C. in ambient air or 5% CO2 as appropriate for 16-20 hours. After incubation, the minimal inhibitory concentration (MIC) was defined as the lowest concentration of the dimer with no evidence of growth. Since 10 or more strains of most organisms were tested; a range of MICs was determined for each organism, as well as the concentration of the dimer that inhibited 50% of the strains (MIC50) and the concentration of the dimer that inhibited 90% of the strains (MIC90).

[1] = test system: Methicillin-resistant Staph aureus (MRSA); experiment: Broth microdilution (NCCLS guidelines), MIC; assay type: cell-based, Staphylococcus aureus
Protocol: as §1, §2, §3, §4

P. aeruginosa = experiment: Broth microdilution (NCCLS guidelines), MIC; assay type: cell-based, Pseudomonas aeruginosa; conditions: Table A
Protocol: as §1, §2, §3, §4

ATCC EC 25922 = experiment: Broth microdilution (NCCLS guidelines), MIC; assay type: cell-based, Escherichia coli; conditions: Table A
Protocol: as §1, §2, §3
Microdilution trays were incubated at 35° C. in ambient air or 5% CO2 as appropriate for 16-20 hours. […]

MRSA = experiment: Minimal bactericidal concentration (MBC), 99.9% kill; assay type: cell-based, Staphylococcus aureus; conditions: Table F
Protocol: as §3
Various isolates were also tested for minimal bactericidal concentration (MBC) (see Tables D and F).
Subbed 50 μl of ≤5 clear wells

[2] = strain S. aureus 1 (line under ATCC 25923)
[3] = Table C, Pip/Taz S. aureus, 10 strains, solution 14 days old
[4] = Table C, S. aureus, 10 strains, solution 14 days old
[5] = Table E, Pip/Taz SA, 10 strains, fresh solution
[6] = Table E, S. aureus, 10 strains, fresh solution
[7] = Table G, S. aureus (2nd clinical isolate collection), 10 strains
[8] = Table G, S. aureus (pip-tazo study), 10 strains
[9] = Table C, 10 strains, solution 14 days old
[10] = Table E, 10 strains, fresh solution

“10,10'-bis(3,6-dimethyl-5,10-dihydro-1,8-diazaanthracen-5-one) and 5,5'-bis(3,6-dimethyl-5,10-dihydro-1,8-diazaanthracen-10-one) [Example 15]” was tested, and the MIC50 (Staph aureus; Table A, 12 strains) was 0.5 µg/mL, the MIC90 (Staph aureus; Table A, 12 strains) was 1.0 µg/mL and the “Range of MICs” value (Staph aureus; Table A, 12 strains) was “.0625 to 1.0 mg/L”. The MIC (Staph aureus; Table A, ATCC MSSA 25923) was 0.0625 µg/mL, the MIC (Staph aureus; Table A, ATCC MSSA 29213) was 1.0 µg/mL and the 1st MIC (Staph aureus; [2]) was 0.0625 µg/mL. The 2nd MIC (Staph aureus; [2]) was 0.0625 µg/mL, the 1st MIC (Staph aureus; strain S. aureus 2) was 1 µg/mL and the 2nd MIC (Staph aureus; strain S. aureus 2) was 1 µg/mL. It also gave a 1st MIC (Staph aureus; strain S. aureus 3) of 0.5 µg/mL, a 2nd MIC (Staph aureus; strain S. aureus 3) of 0.125 µg/mL and a 1st MIC (Staph aureus; strain S. aureus 4) of 1 µg/mL. For the same substance, the 2nd MIC (Staph aureus; strain S. aureus 4) was 1 µg/mL, the 1st MIC (Staph aureus; strain S. aureus 5) was 1 µg/mL and the 1st MIC (Staph aureus; strain S. aureus 6) was 0.125 µg/mL. It also gave a 2nd MIC (Staph aureus; strain S. aureus 6) of 0.25 µg/mL, a 1st MIC (Staph aureus; strain S. aureus 7) of 0.5 µg/mL and a 2nd MIC (Staph aureus; strain S. aureus 7) of 0.5 µg/mL. The 1st MIC (Staph aureus; strain S. aureus 8) was 0.5 µg/mL, the 2nd MIC (Staph aureus; strain S. aureus 8) was 1 µg/mL and the MICs (Staph aureus; Table C, ATCC MSSA 25923, solution 14 days old, listed as Dimer) was 8 and > 16. The MICs (Staph aureus; Table C, ATCC MSSA 29213, solution 14 days old, listed as Dimer, in µg/mL) was 4 and 8, the MIC50 (Staph aureus; [3]) was 2 µg/mL and the MIC90 (Staph aureus; [3]) was 8 µg/mL. The “Range of MICs” value (Staph aureus; Table C, Pip/Taz S. aureus, 10 strains, solution 14 days old, in µg/mL) was 2-16, the MIC50 (Staph aureus; [4]) was 4 µg/mL and the MIC90 (Staph aureus; [4]) was 16 µg/mL. For the same substance, the “Range of MICs” value (Staph aureus; Table C, S. aureus, 10 strains, solution 14 days old, in µg/mL) was 2-8, the MIC (Staph aureus; Table D, S. aureus 1) was 2 µg/mL and the MIC (Staph aureus; Table D, S. aureus 2) was 16 µg/mL. The MIC (Staph aureus; Table D, S. aureus 3) was 8 µg/mL, the MIC (Staph aureus; Table D, S. aureus 4) was 4 µg/mL and the MIC (Staph aureus; Table D, S. aureus 5) was 16 µg/mL. The MIC (Staph aureus; Table D, S. aureus 6) was 2 µg/mL, the MIC (Staph aureus; Table D, S. aureus 7) was 8 µg/mL and the MIC (Staph aureus; Table D, S. aureus 8) was 2 µg/mL. For the same substance, the MIC (Staph aureus; Table D, S. aureus 9) was 2 µg/mL, the MIC (Staph aureus; Table D, S. aureus 10) was 4 µg/mL and the MICs (Staph aureus; Table E, ATCC MSSA 25923, fresh solution, listed as Dimer, in µg/mL) was 0.125 and 0.25. The MICs (Staph aureus; Table E, ATCC MSSA 29213 (×2), fresh solution, in µg/mL) was 2, the MIC50 (Staph aureus; [5]) was 1 µg/mL and the MIC90 (Staph aureus; [5]) was 2 µg/mL. For the same substance, the “Range of MICs” value (Staph aureus; Table E, Pip/Taz SA, 10 strains, fresh solution, in µg/mL) was 0.25-2, the MIC50 (Staph aureus; [6]) was 0.5 µg/mL and the MIC90 (Staph aureus; [6]) was 1 µg/mL. The “Range of MICs” value (Staph aureus; Table E, S. aureus, 10 strains, fresh solution, in µg/mL) was 0.25-1, the MIC (Staph aureus; Table F, ATCC S. aureus 25923) was 0.25 µg/mL and the MIC (Staph aureus; Table F, ATCC S. aureus 29213) was 2 µg/mL. The MIC (Staph aureus; Table F, Pip/Taz S. aureus 1) was 2 µg/mL, the MIC (Staph aureus; Table F, Pip/Taz S. aureus 3) was 0.25 µg/mL and the MIC (Staph aureus; Table F, Pip/Taz S. aureus 7) was 1 µg/mL. It also gave an MIC (Staph aureus; Table F, S. aureus 1) of 0.25 µg/mL, an MIC (Staph aureus; Table F, S. aureus 2) of 1 µg/mL and an MIC (Staph aureus; Table F, S. aureus 8) of 0.5 µg/mL. For the same substance, the MIC (Staph aureus; Table G footnote, ATCC 25923, methicillin susceptible) was 0.25 µg/mL, the MIC (Staph aureus; Table G footnote, ATCC 29213, methicillin susceptible) was 2 µg/mL and the MIC50 (Staph aureus; [7]) was 0.5 µg/mL. The MIC90 (Staph aureus; [7]) was 1 µg/mL, the “Range of MICs” value (Staph aureus; [7]) was 0.25 to 1 mg/L and the MIC50 (Staph aureus; [8]) was 1 µg/mL. For the same substance, the MIC90 (Staph aureus; [8]) was 2 µg/mL, the “Range of MICs” value (Staph aureus; [8]) was 0.25 to 2 mg/L and the MIC50 ([1]; Table A, 12 strains) was 0.5 µg/mL. For the same substance, the MIC90 ([1]; Table A, 12 strains) was 1.0 µg/mL, the “Range of MICs” value ([1]; Table A, 12 strains) was 0.25 to 1.0 mg/L and the MIC ([1]; Table A, ATCC MRSA 33591) was 0.5 µg/mL. For the same substance, the MIC50 [1, 9] was > 16 µg/mL, the MIC90 [1, 9] was > 16 µg/mL and the “Range of MICs” value ([1]; Table C, 10 strains, solution 14 days old, in µg/mL) was > 16. The MICs ([1]; Table C, ATCC MRSA 33591, solution 14 days old, listed as Dimer, in µg/mL) was 8 and 16, the MIC50 [1, 10] was 2 µg/mL and the MIC90 [1, 10] was 8 µg/mL. For the same substance, the “Range of MICs” value ([1]; Table E, 10 strains, fresh solution, in µg/mL) was 0.5-8, the MICs ([1]; Table E, ATCC MRSA 33591 (×2), fresh solution, in µg/mL) was 1.0 and the MIC ([1]; Table F, MRSA 2) was 8 µg/mL. For the same substance, the MIC ([1]; Table F, MRSA 4) was 2 µg/mL, the MIC ([1]; Table F, MRSA 6) was 0.5 µg/mL and the MIC50 ([1]; Table G, 10 strains) was 2 µg/mL. For the same substance, the MIC90 ([1]; Table G, 10 strains) was 8 µg/mL, the “Range of MICs” value ([1]; Table G, 10 strains) was 0.5 to 8 mg/L and the MIC50 (P. aeruginosa; 10 strains) was > 64 µg/mL. The MIC90 (P. aeruginosa; 10 strains) was > 64 µg/mL, the “Range of MICs” value (P. aeruginosa; 10 strains) was ≥ 64 mg/L and the MIC (P. aeruginosa; ATCC PA 27853 (×2)) was > 64 µg/mL. For the same substance, the MIC (ATCC EC 25922) was > 64 µg/mL, the MBC (MRSA; MRSA 2) was 16 µg/mL and the MBC (MRSA; MRSA 4, skipped wells) was > 16 µg/mL. The MBC (MRSA; MRSA 6) was 2 µg/mL.
